Experimental data published in US20240376433A1, “STEM CELL INDUCTION INTO PRECHONDROCYTES AND DIFFERENTIATION INTO CHONDROCYTES BY CIPROFLOXACIN” (SMART CELL LAB CO., LTD., priority 2021, published 2024).

Tests used:
stem cells [1] = assay: Induction of differentiation of stem cells into chondrocytes (2D), Alcian blue staining; assay type: cell-based; settings: 2D culture, induced to differentiate for 16 days
Experimental: Stem cells (collected from tissue donated by a hospital for non-profit patient treatment) were cultured by attaching 80% or more of the stem cells to a Dulbecco's modified Eagle's medium (DMEM) or a-MEM containing 1 to 10% FBS. Thereafter, the cells were collected using Trypsin-EDTA, counted, seeded at 1×10^3 cells/well in a 96-well plate, and attached to the plate for 24 hours. […] Thereafter, the stem cells induced to differentiate for 16 days were washed with DPBS and fixed with 4% paraformaldehyde for 1 hour. The completely fixed cells were stained using an Alcian blue solution (Merck, B8438) for 1 hour to 1 day. Thereafter, the cells were washed once with 1 N HCl, and then further washed three times with sterile distilled water. Finally, the washed sample was observed under a microscope.

stem cells [2] = assay: Induction of differentiation of stem cells into chondrocytes (3D), Alcian blue staining; assay type: cell-based; settings: 3D culture, 0.1 to 6 μM ciprofloxacin, 16 days
Experimental: Stem cells (collected from tissue donated by a hospital for non-profit patient treatment) were cultured by attaching 80% or more of the stem cells to a Dulbecco's modified Eagle's medium (DMEM) or a-MEM containing 1 to 10% FBS. Thereafter, the cells were collected and counted using Trypsin-EDTA, and 5×10^5 cells were inoculated into a 15 ml conical tube. A medium containing 0.1 to 6 μM ciprofloxacin was centrifuged to settle the cells at 150 g using a centrifuge (Hanil Science Co., Ltd., Combi415). The cells were cultured in a 5% CO2 incubator at 37° C. while exchanging the medium every 2 to 3 days. The stem cells induced to differentiate for 16 days were washed with DPBS and fixed with 4% paraformaldehyde for 1 hour. The completely fixed cells were stained using an Alcian blue solution (Merck, B8438) for 1 hour to 24 hours. Thereafter, the cells were washed once with 1 N HCl, and then further washed three times with sterile distilled water. Finally, the washed sample was observed.

stem cells [3] = settings: stem cells cultured in medium with ciprofloxacin
Experimental: Stem cells (collected from tissue donated by a hospital for non-profit patient treatment) were cultured by attaching 80% or more of the stem cells to a Dulbecco's modified Eagle's medium (DMEM) or a-MEM containing 1 to 10% FBS.
Thereafter, the cells were collected using Trypsin-EDTA, counted, seeded at 1×10^3 cells/well in a 96-well plate, and attached to the plate for 24 hours. Thereafter, ciprofloxacin (Samsung Pharmaceutical, ciprofloxacin injection) was administered according to the concentration, and then cytotoxicity was confirmed for a specific time (up to 166 hours). Next, each well was treated with Cell Counting Kit-8 (hereinafter referred to as CCK, DOJINDO, Cat. No. CK04-13) at 10 μl/well, and then cultured at 37° C. in a 5% CO2 incubator for 1 hour.
The absorbance was measured using an absorbance meter (Bio-Tek, Epoch2) and quantitatively calculated.

## O=C(O)c1cn(C2CC2)c2cc(N3CCNCC3)c(F)cc2c1=O [ciprofloxacin]
Stem cells [1]
  differentiation into chondrocytes, Alcian blue staining (2D): Alcian blue staining, which appears depending on SOX9, was present throughout the chondrocytes
Stem cells [2]
  differentiation into chondrocytes, Alcian blue staining (3D): Alcian blue staining, which appears depending on SOX9, was present throughout the chondrocytes
Stem cells [3]
  cell viability compared to a control (CONT): a significant difference in cell viability was not exhibited
